In patent publication US20040121947A1, “Compounds which inhibit beta-secretase activity and methods of use thereof” (Oklahoma Medical Research Foundation, priority 2000, published 2004):
Where two headings read alike, the source gives them in different places.

Target: T1, memapsin 2 (Homo sapiens, UniProt P56817)
T1 construct: pET-11 vector-derived residues 1-15 of promemapsin 2-T1 (N, cleaved yes); made in house; host or cells: E. coli
Experiment: Inhibition of memapsin 2 proteolytic activity, fluorogenic substrate FS-2
Type: biochemical
Conditions: for Vi/Vo: ratio of initial cleavage velocities of FS-2 with/without compound, enzyme and inhibitor concentrations equal (e.g., about 80 nM, 100 nM)
Method: Ki is the inhibition equilibrium constant which indicates the ability of compounds to inhibit the β-secretase activity of memapsin 2 and memapsin 1. […] The K1 value is independent of the substrate, and converted from Ki apparent.
The Vi/Vo values depicted in Table 1 were determined at conditions under which the enzyme and inhibitor concentrations were equal (e.g., about 80 nM, 100 nM).
The relationship of Ki (independent of substrate concentration) to Kiapp is a function of substrate concentration in the assay and the Km for cleavage of the substrate by either memapsin 1 or memapsin 2 by the relationship:
The spontaneously activated memapsin 2 was employed in assays to assess the inhibition of memapsin 2 relative to memapsin 1 by compounds of the invention and in some crystallization studies.
An aliquot of the inhibitor of known concentration in DMSO was diluted into 1.8 ml 0.1 M NaOAc, pH 4.0. DMSO and added to a final concentration of 10% (v/v), and memapsin 2 (final concentration of 80 nM), followed by a 20 minute equilibration at 37° C. Compounds were evaluated for the ability to inhibit memapsin 1 and memapsin 2 at concentrations between about 10 nM and about 10 μm of inhibitor.

[1] = memapsin 2, apparent Ki in presence of substrate FS-2, read-out: Ki app
[2] = memapsin 2, independent of substrate, converted from Ki apparent, read-out: Ki
[3] = Ki, [I] < 100, memapsin 2, [I] < 100 (nM)
[4] = memapsin 2, apparent Ki in presence of substrate FS-2
[5] = memapsin 2, independent of substrate, converted from Ki apparent

T1 sequence (P56817 41-454 limits assumed): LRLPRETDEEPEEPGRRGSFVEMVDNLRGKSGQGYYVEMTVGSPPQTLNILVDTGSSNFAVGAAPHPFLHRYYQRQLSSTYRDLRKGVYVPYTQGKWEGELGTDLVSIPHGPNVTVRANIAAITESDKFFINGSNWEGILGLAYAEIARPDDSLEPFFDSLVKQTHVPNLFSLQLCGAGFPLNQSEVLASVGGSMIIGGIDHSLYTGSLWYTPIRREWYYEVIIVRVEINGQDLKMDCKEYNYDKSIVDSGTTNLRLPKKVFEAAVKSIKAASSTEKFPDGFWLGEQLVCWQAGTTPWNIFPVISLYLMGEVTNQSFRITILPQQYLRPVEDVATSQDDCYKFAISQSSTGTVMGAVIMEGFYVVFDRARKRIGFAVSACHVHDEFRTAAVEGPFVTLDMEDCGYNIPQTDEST

| Compound | Vi/Vo | Ki [1] | Ki [2] | also measured |
| --- | --- | --- | --- | --- |
| CSCC[C@H](NC(=O)OCn1nc(C)cc1C)C(=O)N[C@@H](CC1CCCC1)[C@@H](O)C[C@@H](C)C(=O)N[C@@H](CC(C)C)C(=O)NCC(C)C [MMI-170] | 1.08 | – | – | – |
| CSCC[C@H](NC(=O)[C@@H](NC(=O)OC(C)(C)C)C(C)C)C(=O)N[C@@H](CC(C)C)[C@@H](O)C[C@@H](C)C(=O)N[C@@H](CC(C)C)C(=O)N1CCOCC1 [MMI-183] | 0.64 | 6740 nM | 4210 nM | Ki [3]: 108 nM |
| CSCC[C@H](NC(=O)C(C)Cn1nc(C)cc1C)C(=O)N[C@@H](CC(C)C)[C@@H](O)C[C@@H](C)C(=O)N[C@H](C(=O)NCc1ccco1)C(C)C (stereo partly shown) [MMI-214] | – | 19 nM | 11.9 nM | – |
| CSCC[C@H](NC(=O)C(Cn1nc(C)cc1C)C(C)C)C(=O)N[C@@H](CC(C)C)[C@@H](O)C[C@@H](C)C(=O)N[C@H](C(=O)NCc1ccco1)C(C)C (stereo partly shown) [MMI-225] | – | 41 nM | 25.7 nM | – |
| CSCC[C@H](NC(=O)c1cccc(O)c1C)C(=O)N[C@@H](CC(C)C)[C@@H](O)C[C@@H](C)C(=O)N[C@@H](CC(C)C)C(=O)NCc1ccccc1 [MMI-120] | 0.66 | 1800 nM | 1130 nM | Ki [3]: 175 nM |
| CSCC[C@H](NC(=O)[C@@H](NC(=O)OC(C)(C)C)C(C)C)C(=O)N[C@@H](CO)[C@@H](O)C[C@@H](C)C(=O)N[C@H](C(=O)NCc1ccccc1)C(C)C [MMI-155] | 0.08 | 2.06 nM | 1.28 nM | – |
| CC(C)C[C@H](NC(=O)[C@H](CS(C)(=O)=O)NC(=O)OCc1ccncc1)[C@@H](O)C[C@@H](C)C(=O)N[C@H](C(=O)NCc1ccccc1)C(C)C [MMI-128] | 0.66 | – | – | – |
| CSCC[C@H](NC(=O)[C@@H](NC(=O)OC(C)(C)C)C(C)C)C(=O)N[C@@H](CC(C)C)[C@@H](O)C[C@@H](C)NC(=O)[C@H](NC(=O)OCc1ccccc1)C(C)C [MMI-162] | 0.98 | – | – | – |
| CC(C)C[C@H](NC(=O)[C@H](C)C[C@H](O)[C@H](CC(C)C)NC(=O)[C@H](CS(C)(=O)=O)NC(=O)OCc1cccnc1)C(=O)NCc1ccccc1 [MMI-143] | 1 | – | – | – |
| CSCC[C@H](NC(=O)[C@@H](NC(=O)OC(C)(C)C)C(C)C)C(=O)N[C@@H](CC(C)C)[C@@H](O)C[C@@H](C)C(=O)N[C@H]1CCCC[C@@H]1O [MMI-055] | – | – | 394000 nM | – |
| CSCC[C@H](NC(=O)[C@@H](NC(=O)OC(C)(C)C)C(C)C)C(=O)N[C@@H](CC(C)C)[C@@H](O)C[C@@H](C)C(=O)N[C@@H]1CCCC[C@@H]1O [MMI-059] | – | 66300 nM | 41400 nM | – |
| CSCC[C@H](NC(=O)[C@H](CC(C)C)NS(=O)(=O)c1ccc(C)cc1)C(=O)N[C@@H](CC(C)C)[C@@H](O)C[C@@H](C)C(=O)N[C@H](C(=O)NCc1ccccc1)C(C)C [MMI-089] | – | 315 nM | 197 nM | – |
| CSCC[C@H](NC(=O)[C@@H](NC(=O)OC(C)(C)C)C(C)C)C(=O)N[C@@H](CC(C)C)[C@@H](O)C[C@@H](C)C(=O)N[C@@H](C(C)C)C1CC(Cc2ccccc2)CC(=O)O1 (stereo partly shown) [MMI-140] | – | 38700 nM | 24200 nM | – |
| CSCC[C@H](NC(=O)[C@@H](NC(=O)OC(C)(C)C)C(C)C)C(=O)N[C@@H](CC(C)C)[C@@H](O)C[C@@H](CC(N)=O)C(=O)N[C@H](C(=O)NCc1ccccc1)C(C)C [MMI-038] | 0.4 | 106 nM | 66.2 nM | – |
| CSCC[C@H](C[C@H](O)[C@H](Cc1ccccc1)NC(=O)[C@H](CCSC)NC(=O)[C@@H](NC(=O)OC(C)(C)C)C(C)C)C(=O)N[C@H](C(=O)NCc1ccccc1)C(C)C [MMI-201] | – | 58 nM | 36.2 nM | – |
| CSCC[C@H](NC(=O)[C@@H](NC(=O)OC(C)(C)C)C(C)C)C(=O)N[C@@H](CC(C)C)[C@@H](O)C[C@@H](C)C(=O)N1CCC[C@H]1C(=O)NCc1ccccc1 [MMI-044] | – | – | – | Ki app [4]: N.I.; Ki [5]: N.I. |
| CCCCNC(=O)[C@H](CC(C)C)NC(=O)[C@H](C)C[C@H](O)[C@H](CC(C)C)NC(=O)[C@H](CCSC)NC(=O)[C@H](CC(C)C)NC(=O)OC(C)(C)C [MMI-160] | 0.19 | 4.15 nM | 2.59 nM | – |
| CSCC[C@H](NC(=O)[C@@H](NC(=O)OC(C)(C)C)C(C)C)C(=O)N[C@@H](CC(C)C)[C@@H](O)C[C@@H](C)C(=O)N[C@H](C(=O)NCc1ccccc1)C1CCCO1 (stereo partly shown) [MMI-034] | – | 223 nM | 139 nM | – |
| CSCC[C@H](NC(=O)[C@@H](NC(=O)OC(C)(C)C)C(C)C)C(=O)N[C@@H](CC(C)C)[C@@H](O)C[C@@H](CCO)C(=O)N[C@H](C(=O)NCc1ccccc1)C(C)C [MMI-037] | – | 104 nM | 64.8 nM | – |
| CSCC[C@H](NC(=O)OCCn1nc(C)cc1C)C(=O)N[C@@H](CC(C)C)[C@@H](O)C[C@@H](C)C(=O)N[C@@H](CC(C)C)C(=O)NC(C)C [MMI-203] | – | 361 nM | 225 nM | – |
| CC(C)C[C@H](NC(=O)[C@H](CCS(C)(=O)=O)NC(=O)OCc1ccoc1)[C@@H](O)C[C@@H](C)C(=O)N[C@H](C(=O)NCc1ccccc1)C(C)C [MMI-137] | 0.85 | – | – | – |
| CSCC[C@H](NC(=O)[C@H](CC(C)C)NS(C)(=O)=O)C(=O)N[C@@H](CC(C)C)[C@@H](O)C[C@@H](C)C(=O)N[C@H](C(=O)NCc1ccccc1)C(C)C [MMI-093] | – | 11.9 nM | 7.45 nM | – |
| CSCC[C@H](NC(=O)OCCn1nc(C)c2c1CCC2)C(=O)N[C@@H](CC(C)C)[C@@H](O)C[C@@H](C)C(=O)N[C@@H](CC(C)C)C(=O)NC(C)C [MMI-220] | – | 4490 nM | 2810 nM | – |
| CSCC[C@H](NC(=O)OCCn1nc(C(C)(C)C)cc1C(C)(C)C)C(=O)N[C@@H](CC(C)C)[C@@H](O)C[C@@H](C)C(=O)N[C@@H](CC(C)C)C(=O)NCC(C)C [MMI-177] | 1.16 | – | – | – |
| CC(C)C[C@H](NC(=O)[C@H](C)C[C@H](O)[C@H](CC(C)C)NC(=O)[C@H](CCS(C)(=O)=O)NC(=O)[C@@H](NC(=O)OC(C)(C)C)C(C)C)C(=O)NC1Cc2ccccc2C1 [MMI-067] | – | 73.5 nM | 45.9 nM | – |
| CSCC[C@H](NC(=O)[C@@H](NC(=O)OC(C)(C)C)C(C)C)C(=O)N[C@@H](CC(C)C)[C@@H](O)C[C@@H](C)C(=O)N[C@@H]1c2ccccc2C[C@@H]1O [MMI-053] | – | – | – | Ki app [4]: N.I.; Ki [5]: N.I. |

Continued, in another order:

| Vi/Vo | Ki [1] | Ki [2] | Compound | also measured |
| --- | --- | --- | --- | --- |
| – | 92900 nM | 58100 nM | CSCC[C@H](NC(=O)[C@@H](NC(=O)OC(C)(C)C)C(C)C)C(=O)N[C@@H](CC(C)C)[C@@H](O)C[C@@H](C)C(=O)N[C@@H](C(C)C)C1CCCCO1 (stereo partly shown) [MMI-131] | – |
| – | 71.1 nM | 44.5 nM | CSCC[C@H](NC(=O)OCn1nc(C)cc1C)C(=O)N[C@@H](CC(C)C)[C@@H](O)C[C@@H](C)C(=O)N[C@H](C(=O)NCc1ccco1)C(C)C [MMI-212] | – |
| – | 761 nM | 476 nM | CSCC[C@H](NC(=O)[C@@H](NC(=O)OC(C)(C)C)C(C)C)C(=O)N[C@@H](CC(C)C)[C@@H](O)C[C@H](C(=O)N[C@@H](C)C(=O)NCc1ccccc1)C(C)C [MMI-211] | – |
| – | 1200 nM | 753 nM | CSCC[C@H](NC(=O)OCn1nc(C)cc1C)C(=O)N[C@@H](CC(C)C)[C@@H](O)C[C@@H](C)C(=O)N[C@@H](CC(C)C)C(=O)N1CCN(C)CC1 [MMI-216] | – |
| – | – | 2.37e+06 nM | CC(C)C[C@H](NC(=O)OC(C)(C)C)[C@@H](O)C[C@@H](C)C(=O)N[C@@H](C)C(=O)NCc1ccccc1 [MMI-001] | – |
| – | 49200 nM | 30700 nM | CC(C)C[C@H](NC(=O)[C@H](CCS(C)(=O)=O)NC(=O)[C@@H](NC(=O)OC(C)(C)C)C(C)C)[C@@H](O)C[C@@H](C)C(=O)N[C@H](CO)C(C)C [MMI-043] | – |
| – | 311 nM | 194 nM | Cc1ccc(S(=O)(=O)N[C@@H](CC(C)C)C(=O)N[C@@H](CCS(C)(=O)=O)C(=O)N[C@@H](CC(C)C)[C@@H](O)C[C@@H](C)C(=O)N[C@H](C(=O)NCc2ccccc2)C(C)C)cc1 [MMI-090] | – |
| – | 9870 nM | 6170 nM | CCC[C@H](C[C@H](O)[C@H](CC(C)C)NC(=O)[C@H](CSC)NC(=O)O[C@H]1CO[C@H]2OCC[C@H]21)C(=O)N[C@H](C(=O)NCc1ccccc1)C(C)C [MMI-028] | – |
| 1.01 | – | – | CC(C)C[C@H](NC(=O)[C@H](CCS(C)(=O)=O)NC(=O)OCc1ccc(CN(C)C)o1)[C@@H](O)C[C@@H](C)C(=O)N[C@H](C(=O)NCc1ccccc1)C(C)C [MMI-129] | – |
| – | 1340 nM | 838 nM | CCC[C@H](C[C@H](O)[C@H](CC(C)C)NC(=O)[C@H](CSC)NC(=O)c1cccc(O)c1C)C(=O)N[C@H](C(=O)NCc1ccccc1)C(C)C [MMI-032] | – |
| – | 374 nM | 234 nM | CSCC[C@H](NC(=O)[C@@H](NC(=O)OC(C)(C)C)C(C)C)C(=O)N[C@@H](CC(C)C)[C@@H](O)C[C@]1(C)CCN([C@H](C(=O)N2CCN(C)CC2)C(C)C)C1=O [MMI-192] | – |
| – | 110 nM | 68.9 nM | CSCC[C@H](NC(=O)C(C)Cn1nc(C)cc1C)C(=O)N[C@@H](CC(C)C)[C@@H](O)C[C@@H](C)C(=O)N[C@@H](CC(C)C)C(=O)NCc1ccco1 (stereo partly shown) [MMI-226] | – |
| – | 29.1 nM | 18.2 nM | COCOCC[C@H](NC(=O)[C@H](CC(C)C)NC(=O)OC(C)(C)C)C(=O)N[C@@H](CC(C)C)[C@@H](O)C[C@@H](C)C(=O)N[C@@H](CC(C)C)C(=O)NC(C)C [MMI-190] | – |
